For one assay, the target named is T1, human CRF2a receptor (Homo sapiens, UniProt Q13324).
T1 construct: expressed in transfected cells; host or cells: TeloHEAC cells
T1 sequence (Q13324 1-411): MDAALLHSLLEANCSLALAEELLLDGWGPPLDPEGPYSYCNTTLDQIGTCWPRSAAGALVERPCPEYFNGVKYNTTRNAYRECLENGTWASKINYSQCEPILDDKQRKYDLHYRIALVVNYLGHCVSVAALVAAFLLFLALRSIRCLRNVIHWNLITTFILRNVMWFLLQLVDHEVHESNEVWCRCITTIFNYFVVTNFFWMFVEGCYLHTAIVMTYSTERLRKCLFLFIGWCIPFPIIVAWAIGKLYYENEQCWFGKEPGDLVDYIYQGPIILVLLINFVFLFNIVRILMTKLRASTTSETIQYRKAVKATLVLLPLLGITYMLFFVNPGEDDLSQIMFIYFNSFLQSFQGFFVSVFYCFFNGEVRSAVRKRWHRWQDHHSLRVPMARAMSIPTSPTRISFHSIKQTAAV
Kind of assay: Activity at human CRF2a receptor, cAMP functional assay in TeloHEAC cells. The assay is classed as cell-based. As to conditions: TeloHEAC cells stably expressing human CRF2a receptor, relative to urocortin 2 (100 nM = 100%). Summed up:
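cAMP accumulation was measured by HTRF 665/620 nm ratio after 30 min at 37° C compound exposure (16 twofold dilutions) of CRF2a-expressing TeloHEAC cells, 10000/well, in HEPES-buffered HBSS plus IBMX. Activity was normalised to urocortin 2 at 100 nM (100%), and EC50 was the concentration giving half-maximal activation.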

For a further assay, the target named is T2, CFR1R receptor (Homo sapiens, UniProt P34998).
T2 construct: host or cells: CHO-K1 (clone 2)
T2 sequence (P34998 24-415): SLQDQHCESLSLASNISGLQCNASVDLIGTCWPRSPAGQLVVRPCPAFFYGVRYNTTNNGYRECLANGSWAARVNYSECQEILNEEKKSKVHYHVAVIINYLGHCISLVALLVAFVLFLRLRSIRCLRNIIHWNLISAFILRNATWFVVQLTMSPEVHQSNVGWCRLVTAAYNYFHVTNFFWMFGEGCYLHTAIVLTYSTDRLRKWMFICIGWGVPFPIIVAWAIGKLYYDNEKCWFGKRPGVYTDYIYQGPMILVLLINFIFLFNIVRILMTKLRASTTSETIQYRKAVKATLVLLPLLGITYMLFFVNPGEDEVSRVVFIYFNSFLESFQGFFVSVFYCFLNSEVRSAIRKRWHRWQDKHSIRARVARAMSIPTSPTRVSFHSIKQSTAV
The assay can be described thus: Activity at anti-target CFR1R receptor, cAMP assay in CRF1R-overexpression CHO-K1 cells. The assay is classed as cell-based. As to conditions: 100% = Sauvagine at 100 nM; for EC50: cAMP. Summed up: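 The method mirrors that used with TeloHAEC cells. Here, thawed clone 2 cells seeded at 4000 cells/well are tested, and 100 nM Sauvagine sets the top of the activation scale.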
Background: cAMP levels reflect the balance of adenylyl cyclase and phosphodiesterase activity.

*1 amine or outer side, *2 acyl side, *3 side chain or, on linkers, in order; H or OH if unused. Where a SMILES comes first, the peptide text is derived from it. Side-chain parts run from the residue outwards. [ ]: non-standard residue; d: D form. The star is where a group is joined. C18 diacid = O=C(O)CCCCCCCCCCCCCCCCC(=O)*; γGlu = O=C(O)[C@H](CCC(=O)[*:2])N[*:1]; NMeI = CC[C@H](C)[C@H](NC)C(=O)O; Api = NC1(C(=O)O)CCNCC1; Abu = CC[C@H](N)C(=O)O; Dap = NC[C@H](N)C(=O)O; Aib = CC(C)(N)C(=O)O A value given as a limit tells only on which side of the number the result lay.

Turning to `CC[C@H](C)[C@H](NC)C(=O)N[C@H](C(=O)N[C@@H](CC(C)C)C(=O)N[C@@H](CO)C(=O)N[C@@H](CC(C)C)C(=O)N[C@@H](CC(=O)O)C(=O)N[C@@H](C(=O)N1CCC[C@H]1C(=O)N[C@H](C(=O)N[C@@H](CCCCN)C(=O)N[C@@H](CC(C)C)C(=O)N[C@@H](CCCCNC(=O)CC[C@H](NC(=O)CCCCCCCCCCCCCCCCC(=O)O)C(=O)O)C(=O)N[C@@H](CCCCN)C(=O)N[C@H](C(=O)N[C@@H](CC(C)C)C(=O)N[C@@H](CC(C)C)C(=O)N[C@@H](CCC(=O)O)C(=O)N[C@@H](CCC(N)=O)C(=O)N[C@@H](CCC(=O)O)C(=O)N[C@@H](CCCCN)C(=O)N[C@@H](CCC(N)=O)C(=O)N[C@@H](CCCCN)C(=O)N[C@@H](CCCCN)C(=O)N[C@@H](CCC(N)=O)C(=O)N[C@@H](CCCNC(=N)N)C(=O)N[C@@H](CCC(=O)O)C(=O)N[C@@H](CCC(N)=O)C(=O)N[C@@H](C)C(=O)N[C@@H](CCC(=O)O)C(=O)N[C@H](C(=O)N[C@@H](CC(N)=O)C(=O)NC(C)(C)C(=O)N[C@@H](CCC(N)=O)C(=O)N[C@H](C(=O)N[C@@H](CC(C)C)C(=O)N[C@@H](C)C(=O)N[C@@H](CCC(N)=O)C(=O)N[C@H](C(N)=O)C(C)C)[C@@H](C)CC)[C@@H](C)O)[C@@H](C)CC)[C@@H](C)CC)C(C)C)C(C)C` [compound 137] (H-[NMeI]VLSLD[dV]PIKLK([γGlu-C18 diacid])KILLEQEKQKKQREQAETN[Aib]QILAQV-NH2), the half-maximal effective concentration (EC50) (as a rule, the concentration that produces a half-maximal response) was 0.07 nM on human CRF2a receptor and greater than 250 nM at CFR1R receptor. Further, the “Emax (% I)” value at CFR1R receptor is given as 9 % I.

`CC[C@H](C)[C@H](NC)C(=O)N[C@H](C(=O)N[C@@H](CC(C)C)C(=O)N[C@@H](CO)C(=O)N[C@@H](CC(C)C)C(=O)N[C@@H](CC(=O)O)C(=O)N[C@@H](C(=O)N1CCC[C@H]1C(=O)N[C@H](C(=O)N[C@@H](CCCCN)C(=O)N[C@@H](CC(C)C)C(=O)N[C@@H](CCCCNC(=O)CC[C@H](NC(=O)CCCCCCCCCCCCCCCCC(=O)O)C(=O)O)C(=O)N[C@@H](CCCCN)C(=O)N[C@H](C(=O)N[C@@H](CC(C)C)C(=O)N[C@@H](CC(C)C)C(=O)N[C@@H](CCC(=O)O)C(=O)N[C@@H](CCC(N)=O)C(=O)N[C@@H](CCC(=O)O)C(=O)N[C@@H](CCCCN)C(=O)N[C@@H](CCC(N)=O)C(=O)N[C@@H](CCCCN)C(=O)N[C@@H](CCCCN)C(=O)N[C@@H](CCC(N)=O)C(=O)N[C@@H](CCCNC(=N)N)C(=O)N[C@@H](CCC(=O)O)C(=O)N[C@@H](CCC(N)=O)C(=O)N[C@@H](C)C(=O)N[C@@H](CCC(=O)O)C(=O)N[C@H](C(=O)N[C@@H](CC(N)=O)C(=O)N[C@@H](C)C(=O)N[C@@H](CCC(N)=O)C(=O)N[C@H](C(=O)N[C@@H](CC(C)C)C(=O)N[C@@H](C)C(=O)N[C@@H](CCC(N)=O)C(=O)N[C@H](C(N)=O)C(C)C)[C@@H](C)CC)[C@@H](C)O)[C@@H](C)CC)[C@@H](C)CC)C(C)C)C(C)C` [compound 138] (H-[NMeI]VLSLD[dV]PIKLK([γGlu-C18 diacid])KILLEQEKQKKQREQAETNAQILAQV-NH2): the 50% effective concentration (EC50) at human CRF2a receptor was 0.05 nM; at CFR1R receptor, greater than 250 nM. Also, the “Emax (% I)” value on CFR1R receptor came out at 10 % I.

On to `CC[C@H](NC(=O)[C@H](CC(N)=O)NC(=O)[C@@H](NC(=O)[C@H](CCC(=O)O)NC(=O)[C@H](C)NC(=O)[C@H](CCC(N)=O)NC(=O)[C@H](CCC(=O)O)NC(=O)[C@H](CCCNC(=N)N)NC(=O)[C@H](CCC(N)=O)NC(=O)[C@H](CCCCN)NC(=O)[C@H](CCCCN)NC(=O)[C@H](CCC(N)=O)NC(=O)[C@H](CCCCN)NC(=O)[C@H](CCC(=O)O)NC(=O)[C@H](CCC(N)=O)NC(=O)[C@H](CCC(=O)O)NC(=O)[C@H](CC(C)C)NC(=O)[C@H](CC(C)C)NC(=O)[C@@H](NC(=O)[C@H](CCCCN)NC(=O)[C@H](CCCCNC(=O)CC[C@H](NC(=O)CCCCCCCCCCCCCCCCC(=O)O)C(=O)O)NC(=O)[C@H](CC(C)C)NC(=O)[C@H](CCCCN)NC(=O)[C@@H](NC(=O)[C@@H]1CCCN1C(=O)[C@H](NC(=O)[C@H](CC(=O)O)NC(=O)[C@H](CC(C)C)NC(=O)[C@H](CO)NC(=O)[C@H](CC(C)C)NC(=O)[C@@H](NC(=O)[C@@H](NC)[C@@H](C)CC)C(C)C)C(C)C)[C@@H](C)CC)[C@@H](C)CC)[C@@H](C)O)C(=O)N[C@@H](CCC(N)=O)C(=O)N[C@H](C(=O)N[C@@H](CC(C)C)C(=O)N[C@@H](C)C(=O)N[C@@H](CCC(N)=O)C(=O)N[C@H](C(N)=O)C(C)C)[C@@H](C)CC` [compound 139] (H-[NMeI]VLSLD[dV]PIKLK([γGlu-C18 diacid])KILLEQEKQKKQREQAETN[Abu]QILAQV-NH2), for which the EC50 is 0.05 nM on human CRF2a receptor and greater than 250 nM on CFR1R receptor. Further, the “Emax (% I)” value on CFR1R receptor is 13 % I.

With `CC[C@H](C)[C@H](NC)C(=O)N[C@H](C(=O)N[C@@H](CC(C)C)C(=O)N[C@@H](CO)C(=O)N[C@@H](CC(C)C)C(=O)N[C@@H](CC(=O)O)C(=O)N[C@@H](C(=O)N1CCC[C@H]1C(=O)N[C@H](C(=O)N[C@@H](CCCCN)C(=O)N[C@@H](CC(C)C)C(=O)N[C@@H](CCCCNC(=O)CC[C@H](NC(=O)CCCCCCCCCCCCCCCCC(=O)O)C(=O)O)C(=O)N[C@@H](CCCCN)C(=O)N[C@H](C(=O)N[C@@H](CC(C)C)C(=O)N[C@@H](CC(C)C)C(=O)N[C@@H](CCC(=O)O)C(=O)N[C@@H](CCC(N)=O)C(=O)N[C@@H](CCC(=O)O)C(=O)N[C@@H](CCCCN)C(=O)N[C@@H](CCC(N)=O)C(=O)N[C@@H](CCCCN)C(=O)N[C@@H](CCCCN)C(=O)N[C@@H](CCC(N)=O)C(=O)N[C@@H](CCCNC(=N)N)C(=O)N[C@@H](CCC(=O)O)C(=O)N[C@@H](CCC(N)=O)C(=O)N[C@@H](C)C(=O)N[C@@H](CCC(=O)O)C(=O)N[C@H](C(=O)N[C@@H](CC(N)=O)C(=O)N[C@@H](CN)C(=O)N[C@@H](CCC(N)=O)C(=O)N[C@H](C(=O)N[C@@H](CC(C)C)C(=O)N[C@@H](C)C(=O)N[C@@H](CCC(N)=O)C(=O)N[C@H](C(N)=O)C(C)C)[C@@H](C)CC)[C@@H](C)O)[C@@H](C)CC)[C@@H](C)CC)C(C)C)C(C)C` [compound 140] (H-[NMeI]VLSLD[dV]PIKLK([γGlu-C18 diacid])KILLEQEKQKKQREQAETN[Dap]QILAQV-NH2), at human CRF2a receptor, a half-maximal effect (EC50) was put at 0.17 nM. Also, on CFR1R receptor, the “Emax (% I)” value turned out to be 14 % I and the 50% effective concentration (EC50) is greater than 250 nM.

The compound `CC[C@H](C)[C@H](NC)C(=O)N[C@H](C(=O)N[C@@H](CC(C)C)C(=O)N[C@@H](CO)C(=O)N[C@@H](CC(C)C)C(=O)N[C@@H](CC(=O)O)C(=O)N[C@@H](C(=O)N1CCC[C@H]1C(=O)N[C@H](C(=O)N[C@@H](CCCCN)C(=O)N[C@@H](CC(C)C)C(=O)N[C@@H](CCCCNC(=O)CC[C@H](NC(=O)CCCCCCCCCCCCCCCCC(=O)O)C(=O)O)C(=O)N[C@@H](CCCCN)C(=O)N[C@H](C(=O)N[C@@H](CC(C)C)C(=O)N[C@@H](CC(C)C)C(=O)N[C@@H](CCC(=O)O)C(=O)N[C@@H](CCC(N)=O)C(=O)N[C@@H](CCC(=O)O)C(=O)N[C@@H](CCCCN)C(=O)N[C@@H](CCC(N)=O)C(=O)N[C@@H](CCCCN)C(=O)N[C@@H](CCCCN)C(=O)N[C@@H](CCC(N)=O)C(=O)N[C@@H](CCCNC(=N)N)C(=O)N[C@@H](CCC(=O)O)C(=O)N[C@@H](CCC(N)=O)C(=O)N[C@@H](C)C(=O)N[C@@H](CCC(=O)O)C(=O)N[C@H](C(=O)N[C@@H](CC(N)=O)C(=O)NC1(C(=O)N[C@@H](CCC(N)=O)C(=O)N[C@H](C(=O)N[C@@H](CC(C)C)C(=O)N[C@@H](C)C(=O)N[C@@H](CCC(N)=O)C(=O)N[C@H](C(N)=O)C(C)C)[C@@H](C)CC)CCNCC1)[C@@H](C)O)[C@@H](C)CC)[C@@H](C)CC)C(C)C)C(C)C` [compound 141] (H-[NMeI]VLSLD[dV]PIKLK([γGlu-C18 diacid])KILLEQEKQKKQREQAETN[Api]QILAQV-NH2) returned a concentration giving a half-maximal response (EC50) at human CRF2a receptor of 0.16 nM. Besides, at CFR1R receptor, the “Emax (% I)” value came out at 32 % I and the half-maximal effective concentration (EC50) was greater than 250 nM.

These data come from patent publication US20260001928A1 (CORTERIA PHARMACEUTICALS, priority 2022, published 2026).
